Laboratory results: patent US10408813B2, “Biosensor for detecting intracellular cyclic adenosine monophosphate (cAMP) and uses thereof” (Academia Sinica, priority 2015, dated 2019)
Values belong to the compound of their own block, whether it stands above or below them.

What was measured:
[1] = biological target: GLP-1R (UniProt P01275+P32301); test: BRET cAMP response assay in RINm5F cells, GLP-1R-mediated cAMP production; format: cell-based, rat; conditions: for effect on dose response curve / potency of GLP-1 (7-36) amide: lipids at concentrations indicated in FIG. 4C-E (ODA 72 uM); for effect on dose response curve of GLP-1 (7-36) amide: OA and LA at 106 and 107 uM, respectively; for effect on cAMP responses to 200 μM of GLP-1 (7-36) amide: 9 uM OEA or 8.4 uM 2-OG; for effect on dose-response curve for GLP-1 (7-36) amide to stimulate cAMP production: lipid at 9 to 8 uM; for effect on potency of Ex-4 to stimulate cAMP production: lipid up to 27 uM
Chain of GLP-1R (P32301 22-463, one chain of several): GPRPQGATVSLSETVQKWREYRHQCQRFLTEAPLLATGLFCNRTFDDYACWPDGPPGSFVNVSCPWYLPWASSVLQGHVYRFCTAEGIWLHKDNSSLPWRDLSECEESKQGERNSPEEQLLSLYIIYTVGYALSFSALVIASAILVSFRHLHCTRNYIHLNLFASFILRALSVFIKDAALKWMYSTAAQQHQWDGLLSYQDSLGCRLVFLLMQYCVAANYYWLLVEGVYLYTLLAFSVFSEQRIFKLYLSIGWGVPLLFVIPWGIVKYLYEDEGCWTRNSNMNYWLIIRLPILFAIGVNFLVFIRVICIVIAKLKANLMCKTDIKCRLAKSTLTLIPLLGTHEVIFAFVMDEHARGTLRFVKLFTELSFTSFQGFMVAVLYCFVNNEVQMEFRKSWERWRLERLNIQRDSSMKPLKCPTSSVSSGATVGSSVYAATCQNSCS

[2] = biological target: T1, His-tagged GLP-1 (7-36) (Homo sapiens, UniProt P01275); test: GLP-1 and OEA binding assay (3H-OEA, Cu-NTA resin capture)
T1 construct: purchased LifeTein
Procedure: Specific bound ^3H-OEA was obtained by subtracting the supernatant ^3H-OEA of reaction from supernatant ^3H-OEA of reaction without GLP-1. […] Copper-nitrilotriacetate resin (Cu^++-NTA), 3 uL in 30 uL of DPBS, was added to capture all the His-tagged GLP-1 (up to 60 uM in 80 uL reaction), further incubated with rotation at RT for 30 min. […] Bound ^3H-OEA=[supernatant ^3H-OEA of nonspecific binding]−[supernatant ^3H-OEA of total binding]. […] The bound ^3H-OEA and free ^3H-OEA were separated as described above, and specific binding was calculated; Bound ^3H-OEA=[supernatant ^3H-OEA of nonspecific binding reaction]−[supernatant ^3H-OEA in the total binding reaction]

[3] = biological target: T2, GLP-1 (7-36) amide (Homo sapiens, UniProt P01275); test: Limited trypsin digestion of GLP-1 (7-36) amide, residual activity by cAMP response in RINm5F cells
T2 construct: purchased LifeTein

[4] = biological target: T3, receptors for GIP (Rattus norvegicus, UniProt P43219); test: BRET cAMP response assay in RINm5F cells, GIP receptor; format: cell-based; conditions: 5 uM antagonist (FIG. 3B)
T3 sequence (P43219 19-455): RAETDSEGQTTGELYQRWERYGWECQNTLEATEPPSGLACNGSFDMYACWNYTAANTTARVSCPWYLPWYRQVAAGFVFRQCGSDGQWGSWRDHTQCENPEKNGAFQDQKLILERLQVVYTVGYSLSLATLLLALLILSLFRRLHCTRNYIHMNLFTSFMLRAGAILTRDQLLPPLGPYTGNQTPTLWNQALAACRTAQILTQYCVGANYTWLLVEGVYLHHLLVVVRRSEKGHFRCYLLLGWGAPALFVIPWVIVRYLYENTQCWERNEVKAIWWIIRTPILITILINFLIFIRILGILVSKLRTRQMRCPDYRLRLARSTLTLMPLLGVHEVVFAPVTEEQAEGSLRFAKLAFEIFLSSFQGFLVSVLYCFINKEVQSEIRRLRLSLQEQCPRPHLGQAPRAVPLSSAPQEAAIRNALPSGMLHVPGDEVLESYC

[5] = biological target: T4, GPR119 (Homo sapiens, UniProt Q8TDV5); conditions: literature (34); read-out: reported EC50 to activate GPR119; cited from earlier work
T4 sequence (Q8TDV5 1-335): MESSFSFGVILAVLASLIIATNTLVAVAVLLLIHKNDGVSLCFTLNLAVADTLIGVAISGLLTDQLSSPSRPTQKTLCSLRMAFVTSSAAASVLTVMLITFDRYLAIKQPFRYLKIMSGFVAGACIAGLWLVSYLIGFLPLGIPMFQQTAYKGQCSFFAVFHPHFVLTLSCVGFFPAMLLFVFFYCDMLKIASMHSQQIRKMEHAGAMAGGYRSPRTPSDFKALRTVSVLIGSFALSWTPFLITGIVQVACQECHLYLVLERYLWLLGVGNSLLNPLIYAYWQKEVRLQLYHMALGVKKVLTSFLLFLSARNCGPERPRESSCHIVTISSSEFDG

[6] = tested on: RINm5F cells; test: BRET cAMP response assay, lipids present alone; format: cell-based, rat; conditions: 28 μM for 2-OG
[7] = tested on: adenylyl cyclase; test: BRET assay with RG-cAMP sensor, adenylyl cyclase activation by forskolin
[8] = biological target: RG-cAMP sensor in RINm5F cells (Homo sapiens, UniProt O95398, F824A/R193G/T823A); test: BRET assay with RG-cAMP sensor, titration of membrane-permeable cAMP analog
[9] = biological target: receptors for glucagon (Rattus norvegicus, UniProt P30082); test: BRET cAMP response assay in RINm5F cells, glucagon receptor; format: cell-based; conditions: 100 uM antagonist (FIG. 3C)
Chain of receptors for glucagon (P30082 27-485): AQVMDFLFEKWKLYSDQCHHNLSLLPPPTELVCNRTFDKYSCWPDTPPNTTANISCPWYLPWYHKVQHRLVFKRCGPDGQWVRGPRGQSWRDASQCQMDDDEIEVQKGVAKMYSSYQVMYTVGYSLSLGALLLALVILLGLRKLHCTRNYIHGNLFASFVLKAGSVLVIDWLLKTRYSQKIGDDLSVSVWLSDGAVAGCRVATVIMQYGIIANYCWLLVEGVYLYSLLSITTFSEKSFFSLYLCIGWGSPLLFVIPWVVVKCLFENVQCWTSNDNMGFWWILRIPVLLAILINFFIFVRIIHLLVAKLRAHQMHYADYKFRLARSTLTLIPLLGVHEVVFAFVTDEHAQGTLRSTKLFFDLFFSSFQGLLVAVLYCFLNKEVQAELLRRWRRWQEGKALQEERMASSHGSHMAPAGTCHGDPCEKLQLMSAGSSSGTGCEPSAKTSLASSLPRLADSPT

[10] = biological target: T5, GLP-1R-V2R membrane (Homo sapiens, UniProt P01275+P43220); test: Receptor binding assay, saturation binding of 125I-GLP-1(7-36)
T5 construct: the first 440 amino acids of the GLP-1R (Met1 to Thr440); expressed in transfected cells; host or cells: U2OS osteosarcoma cells stably co-expressing β-arrestin2:GFP; membrane preparation
T5 sequence (P43220 with tags, fused parts or gaps limits assumed, one chain of several): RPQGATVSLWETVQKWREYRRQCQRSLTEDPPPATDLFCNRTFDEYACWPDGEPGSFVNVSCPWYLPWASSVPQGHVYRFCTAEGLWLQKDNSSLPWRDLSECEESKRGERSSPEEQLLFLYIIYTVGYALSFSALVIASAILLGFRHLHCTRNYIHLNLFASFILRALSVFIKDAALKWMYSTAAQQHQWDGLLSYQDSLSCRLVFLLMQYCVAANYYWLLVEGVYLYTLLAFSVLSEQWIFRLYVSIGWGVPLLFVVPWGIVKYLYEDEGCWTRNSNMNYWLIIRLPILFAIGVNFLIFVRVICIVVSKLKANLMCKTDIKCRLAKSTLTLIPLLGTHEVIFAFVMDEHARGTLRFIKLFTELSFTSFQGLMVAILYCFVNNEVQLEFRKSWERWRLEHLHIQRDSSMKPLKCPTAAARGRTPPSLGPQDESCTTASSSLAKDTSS

[11] = biological target: T6, trypsin (Sus scrofa, UniProt P00761); test: In vitro assay of trypsin activity in the presence of OEA; format: biochemical; conditions: 92 uM OEA, 0.000125% trypsin
T6 construct: purchased Life Technologies (trypsin-EDTA, inferred); assay kit from BioVision
T6 sequence (P00761 9-231): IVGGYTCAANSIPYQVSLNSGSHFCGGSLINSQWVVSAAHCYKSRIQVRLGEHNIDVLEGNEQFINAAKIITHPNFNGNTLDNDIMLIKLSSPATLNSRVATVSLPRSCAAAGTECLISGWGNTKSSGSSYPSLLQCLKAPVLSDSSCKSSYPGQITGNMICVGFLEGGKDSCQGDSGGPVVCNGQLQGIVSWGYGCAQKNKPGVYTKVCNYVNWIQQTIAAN
Procedure: To determine whether OEA affects trypsin activity, we used the Trypsin Activity Colorimetric Test Kit (BioVision, Milpitas, Calif., USA). Briefly, 2 μL substrate was added to a well in 96-well plate containing 48 μL 0.000125% trypsin in the presence or absence of 92 uM OEA. Reactions were conducted at room temperature, and the extent of cleavage was monitored by real-time reading of optical density (OD) at 405 nm

[12] = RINm5F cells stably expressing RG-cAMP sensor

Compound: CCCCCCCCCCCCCCCCCC(=O)O [SA, stearic acid]
effect on dose response curve / potency of GLP-1 (7-36) amide [1]: did not show such an effect

Compound: CCCCCCCC/C=C\CCCCCCCC(=O)O [OA, oleic acid]
effect on dose response curve of GLP-1 (7-36) amide [1]: consistently but mildly left-shifted

Compound: Ex-9: GLP-1 receptor antagonist exendin 9 [reference compound]
effect of antagonist on cAMP response to GLP-1 (7-36) amide ([1]; 500 nM antagonist (FIG. 3A)): curtailed
lipid enhancement and cAMP responses with GLP-1 receptor signaling blocked ([1]; 500 nM exendin 9, GLP-1 (7-36) amide with OEA or 2-OG): barely detectable

Compound: CCCCC/C=C\C/C=C\C/C=C\CCCCC(=O)O [γ-LA, γ-linolenic acid]
effect on dose response curve / potency of GLP-1 (7-36) amide [1]: did not show such an effect

Compound: CCCCCCCCCCCCCCCCCC(=O)NCCO [SEA, stearoylethanolamide]
effect on dose response curve / potency of GLP-1 (7-36) amide [1]: did not affect GLP-1 potency
effect on binding of 3H-OEA to His-tagged GLP-1(7-36) ([2]; competition assay): did not affect the binding
effect on trypsin digestion of GLP-1 (7-36) amide ([3]; 1 uM to 92 uM lipid, 0.00067% trypsin): did not affect trypsin digestion

Compound: CCCCCCCC/C=C\CCCCCCCC(=O)NCCc1ccc(O)c(O)c1 [ODA, n-oleoyldopamine]
effect on dose response curve / potency of GLP-1 (7-36) amide [1]: did not affect GLP-1 potency

Compound: CCCCCCCCCCCCCCCC(=O)NCCO [PEA, palmitoylethanolamide]
effect on dose response curve / potency of GLP-1 (7-36) amide [1]: did not affect GLP-1 potency

effect of antagonist on cAMP response to GIP [4]: curtailed
Compound: GIP(8-42): GIP antagonist, SEQ ID NO: 14 (SDYSIAMDKIHQQDFVNWLLAQKGKKNDWKHNITQ; GIP 8-42)

concentration of GLP-1 to achieve half-maximal binding of OEA ([2]; 0.2 uM 3H-OEA, estimated): 0.16 ± 0.05 µM
Compound: His-tagged GLP-1 (7-36): SEQ ID NO: 6, six consecutive histidine residues tagged to the C-terminal of GLP-1 (7-36) peptide (HAEGTFTSDVSSYLEGQAAKEFIAWLVKGRHHHHHH; His-tagged GLP-1 (7-36)) [reference compound]

Compound: CCCCCCCC/C=C\CCCCCCCC(=O)OC(CO)CO [2-OG, 2-oleoylglycerol]
effect on cAMP responses to 200 μM of GLP-1 (7-36) amide [1]: remarkably enhanced
effect on dose-response curve for GLP-1 (7-36) amide to stimulate cAMP production [1]: markedly left-shifted
effect on potency of Ex-4 to stimulate cAMP production [1]: unaltered
EC50 [5]: 2.9 µM
Ki [2]: 0.1 ± 0.03 µM
cAMP response to lipid present alone [6]: did not elicit cAMP responses

effect on forskolin-elicited BRET response ([7]; 250 μM inhibitor): eliminated
Compound: Cl.c1ccc(C2CCCC2NC2=NCCCCCCCCCCC2)cc1 (stereo not shown) [MDL-12,330A]

concentration at which half maximal reduction of BRET ratio is elicited (EC50) [8, 12]: 2.6 µM
BRET ratio reduction ([8]; concentration change from 0.2 μM to 50 μM): 0.45 unit
Compound: COC1C2OP(=O)(OCOC(C)=O)OCC2OC1n1c(Br)nc2c(N)ncnc21 (stereo not shown) [8-Br-2-O-Me-cAMP-AM, 8-Br-2′-O-Me-cAMP-AM]

Compound: CCCCC/C=C\C/C=C\CCCCCCCC(=O)O [LA, linoleic acid]
effect on dose response curve of GLP-1 (7-36) amide [1]: consistently but mildly left-shifted

Compound: [des-His1,Glu9]-glucagon amide: glucagon antagonist
effect of antagonist on cAMP response to glucagon [9]: curtailed

Compound: CCCCCCCC/C=C\CCCCCCCC(=O)NCCO [OEA, oleoylethanolamide]
Bmax of 125I-GLP-1 ([10]; in the presence of 9.2 uM OEA): 51±6.5 pmole/mg of membrane
effect on cAMP responses to 200 μM of GLP-1 (7-36) amide [1]: remarkably enhanced
effect on dose-response curve for GLP-1 (7-36) amide to stimulate cAMP production [1]: markedly left-shifted
effect on potency of Ex-4 to stimulate cAMP production [1]: unaltered
EC50 [5]: 2.9 µM
effect on innate trypsin activity [11]: does not affect the innate trypsin activity
factor of reduction of residual activity of GLP-1 (7-36) amide after trypsin digestion ([3]; 0.00067% trypsin, OEA increased from 1 uM to 92 uM): more than 40
factor of reduction of GLP-1 activity after trypsin cleavage ([3]; trypsin cleavage in the presence of 92 uM OEA): more than 300
cAMP response to lipid present alone [6]: did not elicit cAMP responses

Compound: [3H]/C(CCCCCCCC)=C(\[3H])CCCCCCCC(=O)NCCO [^3H-OEA, Oleoyl [9,10-^3H]ethanolamide, reference compound]
specific binding to GLP-1 receptor [10]: not able to observe detectable specific binding
concentration of 3H-OEA to achieve half-maximal binding ([2]; 0.1 uM His-tagged GLP-1 (7-36), estimated): 0.28 ± 0.07 µM

EC50 for reduction of BRET ratio [7, 12]: 0.07 µM
Compound: C=C[C@@]1(C)CC(=O)[C@]2(O)[C@@]3(C)[C@@H](O)CCC(C)(C)[C@@H]3[C@H](O)[C@H](OC(C)=O)[C@@]2(C)O1 [forskolin]
BRET ratio reduction, basal cAMP level to maximally stimulated ([7]; maximal forskolin stimulation): 0.3 unit

Compound: CC/C=C\C/C=C\C/C=C\CCCCCCCC(=O)O [ALA, α-linolenic acid]
effect on dose response curve / potency of GLP-1 (7-36) amide [1]: did not show such an effect
